Test results: patent publication US20030199590A1, “Prostaglandin analogues for promotion of hair growth” (priority 2002, published 2003)

Assays:
FP receptors = biological target: T1, FP receptors (Bos taurus, UniProt P37289); test: FP receptor binding assay ([3H]PGF2α, bovine corpus luteum membranes); conditions: Table 2; FP receptor binding
T1 construct: Washed total particulate bovine corpus luteum membranes; from tissue; host or cells: bovine corpus luteum membranes
Method: Non-specific binding was defined with 1-10 μM unlabeled PGF2α or fluprostenol. The assays were terminated by vacuum filtration (using Whatman GF/B glass fiber filter previously soaked in 0.3% polyethyleneimine) and the data analyzed by a non-linear, iterative, curve-fitting computer program.

[1] = biological target: T2, FP receptors (Swiss 3T3 cells expressing FP receptors) (Mus musculus, UniProt P43117); test: FP receptor-mediated phosphoinositide turnover assay; assay type: cell-based; conditions: Table 2; for EC50: [3H]-IPs in Swiss 3T3 cells, read-out: EC50; for % response: efficacy relative to standard
T2 construct: endogenous in cells; host or cells: Swiss 3T3 cells
T2 sequence (P43117 whole entry): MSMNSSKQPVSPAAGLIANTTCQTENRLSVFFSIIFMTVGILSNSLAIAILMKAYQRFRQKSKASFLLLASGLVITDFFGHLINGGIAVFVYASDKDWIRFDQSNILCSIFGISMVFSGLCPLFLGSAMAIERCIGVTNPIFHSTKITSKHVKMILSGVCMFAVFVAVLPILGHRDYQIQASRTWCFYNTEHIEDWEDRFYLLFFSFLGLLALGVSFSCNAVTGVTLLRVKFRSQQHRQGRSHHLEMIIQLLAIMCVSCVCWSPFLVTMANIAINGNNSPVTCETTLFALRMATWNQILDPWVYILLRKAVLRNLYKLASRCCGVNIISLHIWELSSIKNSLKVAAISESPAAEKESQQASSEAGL
Method: FP receptor-mediated phosphoinositide turnover assay: [^3H]Inositol phosphates ([^3H]-IPs) produced by agonist-mediated activation of phospholipase C in Swiss 3T3 cells expressing FP receptors were quantified as follows. Confluent 3T3 cells were exposed to 1.0-1.5 μCi [^3H]-myo-inositol (18.3 Ci/mmol) in 0.5 ml DMEM for 24-30 hours at 37° C. Then cells were rinsed once with DMEM/F-12 containing 10 mM LiCl, and the agonist stimulation experiment was performed in 0.5 ml of the same medium to facilitate accumulation of [^3H]-IPs. Cells were exposed to the agonist or solvent for 60 min at 37° C. (triplicate determinations), followed by aspiration of the medium and immediate addition of 1 ml of ice-cold 0.1 M formic acid. The plates were kept cold and then frozen. Samples frozen up to one week were thawed prior to chromatographic separation of radiolabeled components. The cell lysates (0.9 ml) were loaded on columns packed with approximately 1 ml AG 1-X8 anion exchange resin. The elution procedure consisted of a wash with 10 ml of H2O, then 8 ml of 50 mM ammonium formate, and finally 4 ml of 1.2 M ammonium formate with 0.1 M formic acid, which was collected in a scintillation vial. To this eluate was added 15 ml of scintillation fluid and the total [^3H]-IPs determined by scintillation counting on a beta-counter. Data were analyzed by the sigmoidal fit function of the Origin Scientific Graphics software (Microcal Software, Northampton, Mass.) to determine agonist potency (EC50 value) and efficacy, relative to the standard cloprostenol.

eyelash [2] = test: Eyelash change from baseline evaluated by photographs in clinical studies; assay type: in vivo, patients; conditions: for Percent of Patients with Eyelash Change: Table 3; for Percent of Patients with Eyelash Change: Change Reported / Percent of Patients with Eyelash Change: Color Change / Percent of Patients with Eyelash Change: Density Change / Percent of Patients with Eyelash Change: Length Change / Percent of Patients with Eyelash Change: Thickness Change: Table 4; for change in eyelash color, length, density and/or thickness (in words): Travoprost 0.0015% and 0.004%, latanoprost 0.005% compared to travoprost
Text: Eyelash photographs of each eye were taken at determination of patient eligibility […] (baseline) and Months 1.5, 3, 4.5 and 6 in four clinical studies. Additional photographs were taken at Months 9 and 12 in two clinical studies. Eyelash change was classified using the following categories: change in eyelash color, increase in eyelash length, increase in eyelash density and increase in eyelash thickness. Two independent readers evaluated the photographs subjectively for any change from baseline in eyelash characteristics.

eyelash [3] = conditions: in some instances, U.S. Pat. No. 6,262,105; cited from earlier work

T1 sequence (P37289 whole entry): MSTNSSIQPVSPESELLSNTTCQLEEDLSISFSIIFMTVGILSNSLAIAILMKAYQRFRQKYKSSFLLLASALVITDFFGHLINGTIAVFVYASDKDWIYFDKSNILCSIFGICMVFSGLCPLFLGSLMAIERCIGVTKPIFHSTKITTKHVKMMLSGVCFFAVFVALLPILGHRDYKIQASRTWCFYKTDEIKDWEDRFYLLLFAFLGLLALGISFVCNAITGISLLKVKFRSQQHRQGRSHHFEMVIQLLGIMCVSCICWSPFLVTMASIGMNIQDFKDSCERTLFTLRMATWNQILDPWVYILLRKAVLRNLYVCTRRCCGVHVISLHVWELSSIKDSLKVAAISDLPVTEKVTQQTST

Structure (SMILES): O=C(O)CCCCCC[C@@H]1[C@@H](/C=C/[C@@H](O)COc2cccc(Cl)c2)[C@H](O)C[C@@H]1O [Compound 86]
- Ki (FP receptors): 93 nM
- EC50 [1]: 4.92 nM
- % response [1]: 100%

Structure (SMILES): O=C(O)CCCCCC[C@@H]1[C@@H](/C=C/[C@H](O)COc2cccc(Cl)c2)[C@H](O)C[C@@H]1O [Compound 87]
- Ki (FP receptors): 730 nM
- EC50 [1]: 38 nM
- % response [1]: 88%

Structure (SMILES): O=C(O)CCC/C=C\C[C@@H]1[C@@H](/C=C/[C@H](O)COc2cccc(C(F)(F)F)c2)[C@H](O)C[C@@H]1O [Compound 88]
- Ki (FP receptors): 150 nM
- EC50 [1]: 11.6 nM
- % response [1]: 99%

Structure (SMILES): O=C(O)CCC/C=C/C[C@@H]1[C@@H](/C=C/[C@@H](O)COc2cccc(C(F)(F)F)c2)[C@H](O)C[C@@H]1O [Compound 89]
- Ki (FP receptors): 260 nM
- EC50 [1]: 41 nM
- % response [1]: 96%

Structure (SMILES): CC(C)OC(=O)CCC/C=C\C[C@@H]1[C@@H](CC[C@@H](O)CCc2ccccc2)[C@H](O)C[C@@H]1O [Latanoprost]
- Percent of Patients with Eyelash Change (eyelash [2]; 0.005%): 25.8%
- Percent of Patients with Eyelash Change: Change Reported (eyelash [2]; 0.005%): 25.8%
- Percent of Patients with Eyelash Change: Color Change (eyelash [2]; 0.005%): 16.5%
- Percent of Patients with Eyelash Change: Density Change (eyelash [2]; 0.005%): 22.2%
- Percent of Patients with Eyelash Change: Length Change (eyelash [2]; 0.005%): 25.8%
- Percent of Patients with Eyelash Change: Thickness Change (eyelash [2]; 0.005%): 17.5%
- change in eyelash color, length, density and/or thickness (in words) (eyelash [2]): greatly reduced frequency
- eyelash growth in glaucoma patients (in words) (eyelash [3]): increased eyelash growth

Structure (SMILES): CC(C)OC(=O)CCC/C=C\C[C@@H]1[C@@H](/C=C/[C@@H](O)COc2cccc(C(F)(F)F)c2)[C@H](O)C[C@@H]1O [Travoprost]
- Percent of Patients with Eyelash Change (eyelash [2]; 0.0015%): 48.1%
- Percent of Patients with Eyelash Change (eyelash [2]; 0.004%): 61.3%
- Percent of Patients with Eyelash Change: Change Reported (eyelash [2]; 0.0015%): 48.1%
- Percent of Patients with Eyelash Change: Color Change (eyelash [2]; 0.0015%): 37.3%
- Percent of Patients with Eyelash Change: Density Change (eyelash [2]; 0.0015%): 44.6%
- Percent of Patients with Eyelash Change: Length Change (eyelash [2]; 0.0015%): 48.1%
- Percent of Patients with Eyelash Change: Thickness Change (eyelash [2]; 0.0015%): 33.8%
- Percent of Patients with Eyelash Change: Change Reported (eyelash [2]; 0.004%): 61.3%
- Percent of Patients with Eyelash Change: Color Change (eyelash [2]; 0.004%): 47.9%
- Percent of Patients with Eyelash Change: Density Change (eyelash [2]; 0.004%): 58.2%
- Percent of Patients with Eyelash Change: Length Change (eyelash [2]; 0.004%): 61.1%
- Percent of Patients with Eyelash Change: Thickness Change (eyelash [2]; 0.004%): 51.1%
- change in eyelash color, length, density and/or thickness (in words) (eyelash [2]): concentration-related change
